Where “and” joins values, the source holds several entries; their conditions need not be identical. Equal values may be shown once.
Tested on: WM3248 melanoma cells, 486 antibodies
Experiment: Reverse phase protein arrays (RPPA)
Assay type: cell-based, Human
Description: Pellets were snap frozen in liquid nitrogen and shipped to MD Anderson Cancer Center core RPPA facility for RPPA analysis (Table S5). Three biological replicates for each sample were generated.
Nomenclatures on the RPPA heatmaps: name_of_antibody.species_of_antibody.status_of_antibody. V - antibody validated; C - validation of antibody in progress; Q - antibody nonspecific; E – under evaluation; antibodies raised in M - mouse, G - goat, R - rabbit, or T - rat.

CN(C)c1cccc(Nc2cc(-c3ccccc3)nc(C3CCNCC3)n2)c1 [ARN22089, N1,N1-dimethyl-N3-(6-phenyl-2-(piperidin-4-yl)pyrimidin-4-yl)benzene-1,3-diamine] was tested, and the “LCN2.R.V Norm_10 Average” value (level 10 vs 0) was 1.417, the “LDHA.R.C Norm_10 Average” value (level 10 vs 0) was 1.541 and the “LRP6_pS1490.R.V Norm_10 Average” value (level 10 vs 0) was 0.919. For the same molecule, the “Lasu1.R.V Norm_10 Average” value (level 10 vs 0) was 1.173, the “MACC1.R.V Norm_10 Average” value (level 10 vs 0) was 0.973 and the “MAPK_pT202_Y204.R.C Norm_10 Average” value (level 10 vs 0) was 0.758. The “MCT4.R.V Norm_10 Average” value (level 10 vs 0) was 0.926, the “MDM2_pS166.R.V Norm_10 Average” value (level 10 vs 0) was 1.140 and the “MEK1.R.V Norm_10 Average” value (level 10 vs 0) was 1.376. For the same molecule, the “MEK1_pS217_S221.R.V Norm_10 Average” value (level 10 vs 0) was 0.904, the “MEK2.R.V Norm_10 Average” value (level 10 vs 0) was 0.981 and the “MERIT40.R.C Norm_10 Average” value (level 10 vs 0) was 0.966. For the same molecule, the “MERIT40_pS29.R.V Norm_10 Average” value (level 10 vs 0) was 1.055, the “METTL3.R.V Norm_10 Average” value (level 10 vs 0) was 1.153 and the “MIF.R.C Norm_10 Average” value (level 10 vs 0) was 1.003. The “MIG6.R.V Norm_10 Average” value (level 10 vs 0) was 0.937, the “MITF.R.V Norm_10 Average” value (level 10 vs 0) was 1.099 and the “MLH1.M.V Norm_10 Average” value (level 10 vs 0) was 0.965. The “MLKL.R.V Norm_10 Average” value (level 10 vs 0) was 0.901, the “MMP2.R.V Norm_10 Average” value (level 10 vs 0) was 0.936 and the “MMP14.R.V Norm_10 Average” value (level 10 vs 0) was 1.251. For the same molecule, the “MR1.M.C Norm_10 Average” value (level 10 vs 0) was 1.002, the “MSH6.R.C Norm_10 Average” value (level 10 vs 0) was 1.139 and the “MSI2.R.C Norm_10 Average” value (level 10 vs 0) was 1.076. For the same molecule, the “MTCO1.M.V Norm_10 Average” value (level 10 vs 0) was 1.058, the “MTSS1.M.C Norm_10 Average” value (level 10 vs 0) was 0.995 and the “Mcl.1.R.V Norm_10 Average” value (level 10 vs 0) was 0.815. The “MelanA.R.C Norm_10 Average” value (level 10 vs 0) was 0.907, the “Melanoma.gp100.R.C Norm_10 Average” value (level 10 vs 0) was 0.952 and the “Merlin.R.C Norm_10 Average” value (level 10 vs 0) was 1.140. The “Midkine.R.V Norm_10 Average” value (level 10 vs 0) was 0.931, the “Mitofusin.1.R.V Norm_10 Average” value (level 10 vs 0) was 0.966 and the “Mitofusin.2.R.V Norm_10 Average” value (level 10 vs 0) was 0.982. For the same molecule, the “Mnk1.R.V Norm_10 Average” value (level 10 vs 0) was 0.908, the “mTOR_pS2448.R.C Norm_10 Average” value (level 10 vs 0) was 1.026 and the “HLA.DQA1.R.V Norm_10” value (level 10 vs 0, replicates) was 0.816 and 1.208 and 0.956. The “HLA.DR.DP.DQ.DX.R.C Norm_10” value (level 10 vs 0, replicates) was 0.907 and 1.197, the “HMHA1.R.V Norm_10” value (level 10 vs 0, replicates) was 0.915 and 0.873 and 0.979 and the “HNRNPK.R.V Norm_10” value (level 10 vs 0, replicates) was 0.952 and 0.960. For the same molecule, the “HSP27.M.C Norm_10” value (level 10 vs 0, replicates) was 0.892 and 1.008 and 0.976, the “HSP27_pS82.R.V Norm_10” value (level 10 vs 0, replicates) was 0.956 and 0.808 and 0.983 and the “HSP60.R.V Norm_10” value (level 10 vs 0, replicates) was 0.910 and 0.899 and 0.970. For the same molecule, the “HSP70.R.C Norm_10” value (level 10 vs 0, replicates) was 0.893 and 0.957, the “Hexokinase.I.R.C Norm_10” value (level 10 vs 0, replicates) was 1.324 and 1.263 and the “Hexokinase.II.R.V Norm_10” value (level 10 vs 0, replicates) was 1.158 and 1.060 and 1.165. The “Hif.1αR.C Norm_10” value (level 10 vs 0, replicates) was 1.534 and 0.812 and 1.121, the “Histone.H3.R.V Norm_10” value (level 10 vs 0, replicates) was 1.104 and 1.109 and 0.657 and the “Histone.H3_pS10.R.V Norm_10” value (level 10 vs 0, replicates) was 0.925 and 1.333 and 0.853. The “IDO.R.C Norm_10” value (level 10 vs 0, replicates) was 1.020 and 0.847 and 1.005, the “IGF1R_pY1135_Y1136.R.V Norm_10” value (level 10 vs 0, replicates) was 1.020 and 0.873 and 0.862 and the “IGFBP2.R.V Norm_10” value (level 10 vs 0, replicates) was 0.915 and 0.942. The “IGFBP3.M.V Norm_10” value (level 10 vs 0, replicates) was 0.808 and 1.056 and 1.048, the “IGFRb.R.C Norm_10” value (level 10 vs 0, replicates) was 1.063 and 0.914 and 0.882 and the “IL.6.R.C Norm_10” value (level 10 vs 0, replicates) was 0.956 and 0.898 and 0.919. For the same molecule, the “IMP3.R.C Norm_10” value (level 10 vs 0, replicates) was 0.902 and 1.022 and 0.935, the “INPP4b.R.C Norm_10” value (level 10 vs 0, replicates) was 0.944 and 1.130 and 1.013 and the “IR.b.R.C Norm_10” value (level 10 vs 0, replicates) was 1.057 and 0.927 and 0.958. The “IRF.1.R.V Norm_10” value (level 10 vs 0, replicates) was 0.995 and 0.851 and 0.777, the “IRF.3.R.V Norm_10” value (level 10 vs 0, replicates) was 0.868 and 1.016 and 1.018 and the “IRS1.R.V Norm_10” value (level 10 vs 0, replicates) was 1.002 and 0.864 and 0.920. The “IRS2.R.C Norm_10” value (level 10 vs 0, replicates) was 1.495 and 0.732 and 0.873, the “JAB1.M.C Norm_10” value (level 10 vs 0, replicates) was 1.010 and the “JNK2.R.V Norm_10” value (level 10 vs 0, replicates) was 0.700 and 4.357 and 1.864. For the same molecule, the “JNK_pT183_Y185.R.C Norm_10” value (level 10 vs 0, replicates) was 1.101 and 0.836 and 0.927, the “Jagged1.R.V Norm_10” value (level 10 vs 0, replicates) was 0.925 and 0.930 and 0.952 and the “Jak2.R.V Norm_10” value (level 10 vs 0, replicates) was 0.891 and 0.946. For the same molecule, the “KAP1.R.V Norm_10” value (level 10 vs 0, replicates) was 1.129 and 0.933 and 1.246, the “KEAP1.R.V Norm_10” value (level 10 vs 0, replicates) was 1.137 and 0.961 and 0.953 and the “LAD1.R.V Norm_10” value (level 10 vs 0, replicates) was 0.810 and 0.787 and 1.126. For the same molecule, the “LC3A.B.R.C Norm_10” value (level 10 vs 0, replicates) was 1.080, the “LCN2.R.V Norm_10” value (level 10 vs 0, replicates) was 1.979 and 1.149 and 1.123 and the “LDHA.R.C Norm_10” value (level 10 vs 0, replicates) was 1.080 and 1.446 and 2.097. For the same molecule, the “LRP6_pS1490.R.V Norm_10” value (level 10 vs 0, replicates) was 0.997 and 0.923 and 0.837, the “Lasu1.R.V Norm_10” value (level 10 vs 0, replicates) was 0.972 and 1.377 and 1.170 and the “Lck.R.V Norm_10” value (level 10 vs 0, replicates) was 1.025. The “Lyn.R.V Norm_10” value (level 10 vs 0, replicates) was 0.836 and 1.342 and 1.046, the “MACC1.R.V Norm_10” value (level 10 vs 0, replicates) was 0.988 and 0.983 and the “MAPK_pT202_Y204.R.C Norm_10” value (level 10 vs 0, replicates) was 0.814 and 0.633 and 0.828. The “MCT4.R.V Norm_10” value (level 10 vs 0, replicates) was 0.718 and 0.987, the “MDM2_pS166.R.V Norm_10” value (level 10 vs 0, replicates) was 1.187 and 1.159 and the “MEK1.R.V Norm_10” value (level 10 vs 0, replicates) was 3.067 and 0.225 and 0.836.

Source: paper PMC9127750, “Structure-based design of CDC42 effector interaction inhibitors for the treatment of cancer” (Cell reports, 2022)
